According to patent US10308938B2, “Compositions and methods to activate or inhibit toll-like receptor signaling” (priority 2014, dated 2019):
“Also recorded” adds a separate entry of the source.

Tested on: CD4^+ T cells
Experiment: shRNA-transduced CD4+ T cells stimulated in the presence or absence of IMQ
Type: cell-based, human
Excerpt: Enzyme-linked immunosorbent assay.
Quantification of mRNA expression levels by RT-PCR. RNA was isolated using QIAGEN RNeasy Micro Plus Kit (QIAGEN, Valencia, Calif.), following manufacturer's guidelines and converted to cDNA by reverse transcription (RT) with random hexamers and Multiscribe RT (TQMN, Reverse Transcription Reagents; Applied Biosystems, Foster City, Calif.). For mRNA gene expression assays, probes were purchased from Applied Biosystems (Table 2) and the reactions were set up following manufacturer's guidelines and run on a StepOne Real-Time PCR System (Applied Biosystems). Values are represented as the difference in Ct values normalized to β2-microglobulin for each sample as per the following formula: Relative RNA expression=(2^−dCt)×1000.
Gene silencing by lentiviral transduction. Lentiviral particles encoding shRNAs were obtained from Sigma-Aldrich (NFAT1 clone TRCN0000016144, TLR7 clones 3 and 4 TRCN0000056973 and TRCN0000056974, respectively). 5×10^4 CD4^+ T cells per well were stimulated with plate-bound anti-CD3 (1 μg/ml) and soluble anti-CD28 (1 μg/ml) for 12 h before transduction. Cells were then transduced with viral particles containing a vector expressing the indicated specific shRNA (NFAT1 or TLR7) or a non-target shRNA as a control at a multiplicity of infection of 4. All constructions contained the coding sequence for GFP. After 5 days in culture, transduced cells were sorted based on GFP expression and the efficiency of gene silencing was determined by TaqMan real-time PCR and protein staining.

[1] = NFAT shRNA-transduced cells, 3 days
[2] = TLR7 shRNA-transduced cells, 3 days
[3] = non-target shRNA-transduced cells, 3 days, listed as IMQ

CC(C)Cn1cnc2c(N)nc3ccccc3c21 [Imiquimod]
NFAT1 gene expression (24 hours after stimulation): did not have an effect | IFNγ production [1]: not affected | IL-2 production [1]: not affected | IMQ-induced decrease of IFNγ secretion [2]: abolished | IMQ-induced decrease of IL-2 secretion [2]: abolished | IFNγ secretion [3]: decrease; also recorded: significantly reduced | IL-2 secretion [3]: decrease; also recorded: significantly reduced
